Measured values published in patent publication EP2269977B1, “Inhibitors of the 11-beta-hydroxysteroid dehydrogenase Type 1 enzyme” (AbbVie Inc., priority 2005, dated 2006).

Experiments:
[1] = Metabolic stability screen in mouse liver microsomes; format: in vitro ADME; conditions: substrate 10 µM, microsomal protein 0.1- 0.5 mg/ml, 1mM NADPH, pH 7.4, 37°C, 30 min incubation, LC/MS, read-out: Mouse Liver Microsomal Turnover
Description: (§1) Metabolic stability screen: each substrate (10 µM) was incubated with microsomal protein (0.1- 0.5 mg/ml) in 50mM potassium phosphate buffer (pH 7.4) in 48-Well plate. The enzyme reaction was initiated by the addition of 1mM NADPH, then incubated at 37°C in a Forma Scientific incubator (Marietta, OH, USA) with gentle shaking. The reactions were quenched by the addition of 800 µl of ACN/MeOH (1:1, v/v), containing 0.5 µM of internal standard (IS), after 30 min incubation. Samples were then filtered by using Captiva 96-Well Filtration (Varian, Lake Forest, CA, USA) and analyzed by LC/MS (mass spectrometry). Liver microsomal incubations were conducted in duplicate.
(§2) The parent remaining in the incubation mixture was determined by LC/MS. […] A Luna C8(2) (50 x 2.0 mm, particle size 3 µm, Phenomenex, Torrance, CA, USA) was used to quantify each compound at ambient temperature. […]
(§3) The peak area ratios (each substrate over IS) at each incubation time were expressed as the percentage of the ratios (each substrate over IS) of the control samples (0 min incubation). The parent remaining in the incubation mixture was expressed as the percentage of the values at 0 min incubation. The percentage turnover is calculated using the following equation (%turnover =[…] - %parent remaining) and is recorded as the percentage turnover in the Table 2. […]

[2] = Metabolic stability screen in human liver microsomes; format: in vitro ADME; conditions: substrate 10 µM, microsomal protein 0.1- 0.5 mg/ml, 1mM NADPH, pH 7.4, 37°C, 30 min incubation, LC/MS, read-out: Human Liver Microsomal Turnover
Description: as §1, §2, §3

- metabolised at 0.5 h, 10 µM [1]: 86%
- metabolised at 0.5 h, 10 µM [2]: 88%
Structure (SMILES): CC(C)(Oc1ccc(Cl)cc1)C(=O)NC1C2CC3CC(C2)CC1C3 (centres unmarked) [EE, N-adamantan-2-yl-2-(4-chloro-phenoxy)-2-methyl-propionamide]
